The values below come from patent US20220387357A1, “Method of Dosing a Pain Therapeutic” (priority 2021, published 2022).

Data set [1] is described as follows: Acute pain tail-flick assay, side-by-side mice studies. In kind it is in vivo. The note with it: side-by-side comparison, similar to opioids.
For a further data set, the target named is CB1 receptors (Homo sapiens, UniProt P21554). The note with it: mediated through CB1 receptors; cited from earlier work.
The format of data set [2] is in vivo, humans. An excerpt:
(§1) Nevertheless, CMX-020 may produce adverse side effects when given at improper dosages. Methods of administrating an effective amount of the compound CMX-020 to produce an analgesia effective, while still being within a safe and tolerable dose, is both necessary and desirable.

A short description of data set [3]: Preclinical animal models of pain. Type of data set: in vivo. The note with it: acute pain, visceral pain, fibromyalgia, diabetic peripheral neuropathy, sciatica, chemotherapy induced pain, osteoarthritis models.
Text: as §1

Data set [4] is described as follows: Nonclinical studies of analgesia compared with morphine. Type of data set: in vivo.
The format of data set [5] is in vivo, human. An excerpt: Tachycardia was the most common adverse event (AE) in this study, reported in 5 of 48 subjects (10%) following active treatment and in no subjects following placebo; all of the treatment-emergent AEs (TEAEs) of tachycardia were deemed related to study treatment.
The Toxicity Grading Scale for Healthy Adult and Adolescent Volunteers Enrolled in Preventative Vaccine Clinical Trials criteria for tachycardia are defined as follows: […]
Severe (Grade 3): >130 bpm
In this study, tachycardia was dose limiting at a level >130 bpm.

Where [6] appears, read: Subject 0048, 0.24 mg/kg 15-minute infusion.
The mark [7] stands for this setting: Subject 0057, 0.32 mg/kg 30-minute infusion.
The mark [8] stands for this setting: following active treatment, all dose levels.

Like-named read-outs stand apart in the source and are kept apart here.

Chain of CB1 receptors (P21554 whole entry): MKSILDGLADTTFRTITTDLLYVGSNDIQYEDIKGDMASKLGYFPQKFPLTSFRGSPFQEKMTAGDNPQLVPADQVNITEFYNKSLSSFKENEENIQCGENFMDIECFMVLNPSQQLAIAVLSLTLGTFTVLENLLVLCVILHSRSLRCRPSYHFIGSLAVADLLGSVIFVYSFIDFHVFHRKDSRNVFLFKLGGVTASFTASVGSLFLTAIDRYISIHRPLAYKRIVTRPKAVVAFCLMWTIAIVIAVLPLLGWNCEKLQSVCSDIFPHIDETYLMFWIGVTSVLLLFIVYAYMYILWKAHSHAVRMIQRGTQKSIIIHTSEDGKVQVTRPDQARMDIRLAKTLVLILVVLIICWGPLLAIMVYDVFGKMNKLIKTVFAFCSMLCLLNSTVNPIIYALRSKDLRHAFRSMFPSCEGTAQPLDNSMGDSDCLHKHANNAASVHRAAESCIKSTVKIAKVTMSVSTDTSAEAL

As to `CCCCC/C=C\C/C=C\C/C=C\C/C=C\CCCC(=O)Nc1ccc(O)cc1` [AM404, reference compound], the “Analgesic efficacy in the acute pain tail-flick assay” value in data set [1] is reported as “highest level of analgesic efficacy”. Moreover, the Anticonvulsant action result at CB1 receptors is given as “anticonvulsant action mediated through CB1 receptors”.
As for `CCCCCC(=O)N(CCC=C=CCCCC=C=CCC=C=CCCCC(=O)NC1CC1)C(C)C` [CMX-020], the “Analgesic efficacy in the acute pain tail-flick assay” value in data set [1] is recorded as “highest level of analgesic efficacy”. Moreover, the “Efficacy in proof-of-concept trial in sciatic pain” value in data set [2] (humans, sciatic pain) is “indicated efficacy”. Besides, the “Safety when administered to humans” value in data set [2] (intravenous and oral formulations, several dose levels) is reported as “demonstrated the safety”. Moreover, the “Pain response in animal models of pain” value in data set [3] is given as “effectively reduce the pain response”. Further, the “Analgesia compared with morphine” value in data set [4] was “analgesia equivalent to that achieved by morphine”. In addition, the “Number of elevated heart rate assessed as clinically significant” value in data set [5] (0.32 mg/kg and 0.24 mg/kg 15-minute infusion groups compared with the other dose levels and placebo) is “higher number”. Also, in data set [5] (0.32 mg/kg and 0.24 mg/kg 15 minutes infusion and 0.32 mg/kg 30 minute infusion), the “Doses at which tachycardia was reported” value was “only at the three highest doses”. In data set [5] (Subject 0033, 0.32 mg/kg 15-minute infusion), the “Time of peak heart rate following the start of treatment administration” value was found to be 16 min. The “Heart rate after decrease” value is 113 bpm in data set [5] (Subject 0033, 0.32 mg/kg 15-minute infusion, 15 minutes following the peak heart rate); 101 bpm in data set [5] (Subject 0036, 0.32 mg/kg 15-minute infusion, 15 minutes following the start of treatment administration (so in the source)); 109 bpm in data set [5] (Subject 0045, 0.24 mg/kg 15-minute infusion, 10 minutes following the start of treatment administration (so in the source)); 103 bpm in data set [5] (Subject 0048, 0.24 mg/kg 15-minute infusion, 15 minutes following the peak heart rate); 97 bpm in data set [5] (Subject 0057, 0.32 mg/kg 30-minute infusion, 20 minutes following the peak heart rate). Besides, the “Peak Pulse” value in data set [5] (Subject 0033, Cohort 5, 0.32 mg/kg 15-minute infusion) is 138 bpm; in data set [5] (Subject 0036, Cohort 5, 0.32 mg/kg 15-minute infusion), 110 bpm; in data set [5] (Subject 0045, Cohort 6, 0.24 mg/kg 15-minute infusion (discontinued, total dose received 0.156 mg/kg)), 156 bpm; in data set [5] (Subject 0048, Cohort 6, 0.24 mg/kg 15-minute infusion) it was 109 bpm; in data set [5] (Subject 0057, Cohort 8, 0.32 mg/kg 30-minute infusion) it was 110 bpm. Also, in data set [5] (Subject 0036, 0.32 mg/kg 15-minute infusion), the “Time of peak heart rate following the start of dose administration” value worked out at 16 min. Besides, the “Time of elevated heart rate following the start of dose administration” value in data set [5] (Subject 0045, 0.24 mg/kg 15-minute infusion) worked out at 11 min. In addition, the “Time of TEAE of tachycardia following start of treatment administration” value in data set [5] (setting [6]) turned out to be 11 min; in data set [5] (setting [7]), 16 min. Moreover, the results for the “Time of peak heart rate following start of treatment administration” value in data set [5] (setting [6]) and in data set [5] (setting [7]) were 16 min and 20 min, respectively. The “Time of peak in elevated heart rate following the start of treatment administration” value in data set [5] (cohorts 5 and 6, 15-minute infusions) lay in the range of 11 to 16 min. Moreover, in data set [5] (cohorts 7 and 8, 30-minute infusions), the “Time of peak in elevated heart rate” value was “approximately 30 minutes”. Further, the “Incidence of tachycardia (adverse event)” value in data set [5] (setting [8]) was 10%. Further, the “Subjects reporting tachycardia (adverse event)” value in data set [5] (setting [8]) is 5 of 48.
